In the NIST ThermoML archive (doi:10.1016/j.jct.2017.06.001):
± gives the expanded uncertainty stated by the source.

Experiments:
[1] = 100 kPa, Liquid; for mass density: Vibrating tube method; for speed of sound: Frequency=5 MHz, Pulse-echo method
[2] = xn = mol fraction of the nth substance listed; conditions: 100 kPa, Liquid, x2 = 0; for mass density: Vibrating tube method; for speed of sound: Frequency=5 MHz, Pulse-echo method

OCCCCCO [1,5-pentanediol]
[1]
Conditions	mass density [kg/m3]	speed of sound [m/s]
278.15 K	998 ± 2.1	–
283.15 K	995 ± 2.1	–
288.15 K	992.2 ± 2.1	1616.4 ± 2.3
293.15 K	989.3 ± 2.1	1605 ± 2.3
298.15 K	986.5 ± 2.1	1593.8 ± 2.3
303.15 K	983.6 ± 2.1	1582.5 ± 2.3
308.15 K	980.7 ± 2.1	1571.3 ± 2.3
313.15 K	977.8 ± 2.1	1560.2 ± 2.3
318.15 K	974.9 ± 2.1	1549 ± 2.3
323.15 K	971.9 ± 2.1	–
328.15 K	969 ± 2.1	–
333.15 K	965.9 ± 2.1	–

O [water] + OCCCCCO
[2]
Conditions	mass density [kg/m3]	speed of sound [m/s]
278.15 K	999.97 ± 0.16	–
283.15 K	999.7 ± 0.16	–
308.15 K	–	1519.2 ± 1.1
313.15 K	–	1528.8 ± 1.2
318.15 K	–	1536.7 ± 1.2
323.15 K	988.03 ± 0.16	–
328.15 K	985.68 ± 0.16	–
333.15 K	983.19 ± 0.16	–
